Results as given in patent US9629891B2, “Products and methods for aortic abdominal aneurysm” (NATIONWIDE CHILDREN'S HOSPITAL, INC., priority 2011, dated 2017).
Entries after “also recorded” stand apart in the source; their conditions may differ.

How the values were obtained:
RAW 264.7 [1] = assay: Inflammatory mediator mRNA expression (qRT-PCR) in unstimulated RAW cells; assay type: cell-based; settings: 10 μM DAPT for 6 days, vs untreated cells
Experimental: (§1) The aorta was isolated from experimental mice at day 28 of AngII infusion and immediately frozen in RNA-later (Ambion, Austin, Tex.). Abdominal aorta of equal length was cut from the abdominal region of ApoE^−/− and Notch1^+/−ApoE^−/− mice and RNA was extracted using RNAqueous kit (Ambion, Austin, Tex.). RAW cells (264.7) were obtained from ATCC (Manassas, Va.) and were cultured following the manufacturer's instructions. Naïve macrophages were collected from the peritoneal cavity of ApoE^−/− or Notch1^+/−ApoE^−/− mice by standard protocol [Hans et al., Cardiovasc. Pathol., 185:1894-902 (2011); Hans et al., Cardiovasc. Res., 78:429-439 (2008); Oumouna-Benachour et al., Circulation, 115:2442-2450 (2007)]. The isolated macrophages were cultured in RPMI containing 10% FCS for 3 days and were then treated with 100 nM LPS or diluent for 3 h in RPMI containing 1% FCS. Following treatment, the macrophages were washed with cold PBS and RNA was extracted using RNAeasy kit (Qiagen, Valencia, Calif.). cDNA was synthesized using SuperScript® VILO™ cDNA Synthesis Kit (Invitrogen, Carlsbad, Calif.) and subjected to qRT-PCR by SYBR Green RT-PCR kit (Applied Biosystems, Foster City Calif.) using Applied Biosystems 7500 Fast Real-Time PCR System (Foster City Calif.). qRT-PCR was performed in triplicate and fold change determined by standardization to 18S rRNA. Results were normalized to the controls. […]

RAW 264.7 [2] = assay: Inflammatory mediator mRNA expression (qRT-PCR) in LPS-stimulated RAW cells; assay type: cell-based; settings: pre-treatment with 10 μM DAPT, RAW cells with 100 ng/ml LPS for 3 hours, vs non-DAPT treated cells
Experimental: as §1

[3] = tested on: AngII-induced mouse model of AAA; assay: Prophylactic Notch inhibition in AngII-induced mouse model of AAA; assay type: in vivo; settings: ApoE−/− mice
Experimental: Mini osmotic pumps (Model 2004; Alzet, Cupertino, Calif.) containing AngII (1000 ng/min/kg) or saline were implanted subcutaneously in the neck region of anesthetized mice following standard protocol [Daugherty et al., J. Clin. Invest., 105:1605-1612 (2000)]. Three independent experiments were performed to determine the effect of Notch1 haploinsufficiency on the formation of AAA. In one of these three experiments the effects of pharmacological inhibition of Notch were tested on AAA formation. Mice (n=3) were injected with a Notch inhibitor, DAPT (10 mg/kg dissolved in 10% ethanol, 90% corn oil), three times a week subcutaneously starting one week before the implantation of osmotic pump and continuing for an additional 28 days until the mice were sacrificed, as explained for FIG. 6. [Loane et al., Nat. Med., 15:377-379 (2009); Lanz et al., J. Pharmacol. Exp. Ther., 305:864-871 (2003); Sjolund et al., J. Clin. Invest., 118:217-228 (2008)].
Two dimensional (B-mode) in vivo ultrasound images were obtained at weekly intervals after the implantation of osmotic pumps using a VisualSonics Vevo2100 imaging system (Ontario, Canada) with a mechanical transducer (MS400). After 28 days, the animals were euthanized and the aortas were dissected and fixed in 10% formalin. Minimum and maximum diameters of each vessel were determined by digitalized measurement (Zeiss AxioImager upright microscope with brightfield).
Histological examination of the abdominal aorta of the AngII and saline treated mutant mice was performed. The abdominal region of the aorta were embedded in paraffin and serial sections ([…]) were obtained. Sections were stained with hematoxylin and eosin (HE), elastin staining (Sigma, St. Louis, Mo.), and terminal deoxynucleotidyl transferasemediated dUTP nick-end labeling (TUNEL) staining (Roche, Indianapolis, Ind.). Statistical comparisons were performed using either Student's t-test or one-way ANOVA followed by the Bonferroni's Multiple Comparison Test. GraphPad PRISM V5.0 (San Diego, Calif.) was used for these comparisons and a P value<0.05 was considered significant. […]

[4] = tested on: AngII-induced mouse model of AAA; assay: Therapeutic Notch inhibition (start day 3 or day 8) in AngII-induced mouse model of AAA, Example 7; assay type: in vivo; settings: ApoE−/− mice
From the text: In the study, mice were divided into four groups: • ApoE^−/− mice with AngII plus vehicle for 28 days (n=6); • ApoE^−/− mice with AngII plus DAPT (7 days prior to AngII infusion, n=6); • ApoE^−/− mice with AngII plus DAPT (3 days after AngII infusion, n=9); and • ApoE^−/− mice with AngII plus DAPT (8 days after AngII infusion, n=9).
These time periods were carefully selected to determine the effect of Notch inhibition on the formation of AAA before the onset of disease (−7 days), at day 3 (onset of inflammation) and day 8 (elastin degradation and cellular remodeling).
NOTCH inhibitor (DAPT; 10 mg/kg; […] in corn oil) given at day 3 and day 8 after the AngII infusion reduced the progression of active AAA in the mouse model.

[5] = tested on: AngII-induced mouse model of AAA; assay: Progression of active AAA in AngII-induced mouse model, Example 8; assay type: in vivo
Experimental: Active aneurysm was introduced in ApoE^−/− mice (n=36) by administering AngII. DAPT (10 mg/kg; 3 times a week) was injected in these mice starting either 3 days (Group II; n=12) or 8 days (Group III; n=12) after AngII infusion. Group I (n=12) received vehicle (10% alcohol in corn oil) only. The time periods were chosen so that a small aortic dilation is established before DAPT is administered.
The increased collagen content in the aorta of ApoE^−/− mice in response to AngII provides stability to the tissue against sudden rupture.

[6] = AngII infusion 28 days, DAPT 10 mg/kg three times a week from one week before AngII, vs untreated ApoE−/− mice

C[C@H](NC(=O)Cc1cc(F)cc(F)c1)C(=O)N[C@H](C(=O)OC(C)(C)C)c1ccccc1 [DAPT, N—[N-(3,5-Difluorophenacetyl)-L-alanyl]-S-phenylglycine t-butyl ester]
expression of MCP-1, IL-6, TNF-α, CXCL-10, VEGF, iNOS, ICAM-1, and VCAM-1 (RAW 264.7 [1]): Decreased expression; also recorded: significantly decreased | expression of MCP-1, IL-6, TNF-α, CXCL-10, VEGF, iNOS, and ICAM-1 (RAW 264.7 [2]): Decreased expression; also recorded: significantly reduced | aortic diameter [3, 6]: statistically significant reduction | incidence of AAA [3, 6]: statistically significant reduction | histologic analysis of the aorta ([3]; AngII infusion, DAPT 10 mg/kg prophylactic, vs untreated mice): no evidence of abdominal aneurysm; also recorded: normal aortic wall architecture without infiltration of inflammatory cells | maximal abdominal aortic width at day 28 ([4]; AngII, DAPT treatment started at day 3 and day 8): significantly decreased | progression of active AAA ([4]; DAPT 10 mg/kg in corn oil given at day 3 and day 8 after AngII infusion): reduced | luminal expansion of the abdominal aorta ([5]; ApoE−/− mice, AngII, DAPT 10 mg/kg 3 times a week from day 3 (Group II) or day 8 (Group III), vs vehicle, echocardiography, p<0.05): significantly reduced | expression of MMP2 and MMP9 in the aortas ([5]; Group II and Group III vs Group I (vehicle), quantitative real-time PCR and immunohistochemistry): decreased | monocyte chemotactic protein-1 ([5]; Group III (DAPT from day 8)): not associated with increased monocyte chemotactic protein-1 | newly synthesized tropoelastin and collagen staining ([5]; Group III (DAPT from day 8)): increased expression | macrophage content (CD-68) ([5]; Group III (DAPT from day 8) vs Group I (vehicle), marginal increase vs Group II): significantly less than Group I | elastin fragmentation and aortic remodeling ([5]; both groups (DAPT from day 3 or day 8), histology): prevented
